Results as given in patent publication US5618726A, “Biodegradable azo dyes” (priority 1994, dated 1997).

Key:
[1] = tested on: Streptomyces chromofuscus; assay: Mineralization of 14C-labeled dyes by shaken cultures; type: cell-based
Procedure: (§1) Agitated cultures containing 100,000 to 150,000 dpm of azo dye at a concentration of 200 mg/liter for P. chrysosporium and 50 mg/liter for S. chromofuscus were incubated at 37° C. for 20 days with shaking at 200 rpm. For each mineralization experiment six replicates-per-culture were run for P. chrysosporium and three replicates-per-culture for S. chromofuscus. Each culture flask contained a CO2 trap consisting of a small glass cup connected to the bottom of the rubber stopper. The cup contained 1 ml of 1N NaOH. Samples were taken every 2 days, and after each sampling cultures were flushed with 100% oxygen for 30 s. At the sampling time, the stopper was removed and the NaOH containing trapped CO2 was transferred to a 20-ml scintillation vial, and the cup was then rinsed twice with 1 ml of water. Two ml of rinse water were also transferred to the vial. Finally, 10 ml of Ecolite scintillation cocktail (ICN Biochemicals Inc., Irvine, Calif.) were added to each vial. Vials, after mixing, were stored in the dark for 24 h. The cpm of trapped radioactivity was then determined in a Packard Tri-Carb liquid scintillation analyzer, Model 1500, using the ^14 C quench standards and SIS numbers.
(§2) The removal of radioactivity from the media was determined by measuring the amount of ^14 C label in 0.1 ml of the medium at time 0 and 21 days for each culture. Uninoculated cultures were used as evaporation controls. […] At the end of each mineralization experiment, culture broths were acidified with 5 ml of 1M H3 PO4, fresh 1N NaOH was added to the trap, and the cultures were shaken overnight. No additional releases of ^14 CO2 were observed. The radioactivity assimilated by the cells was measured by solubilizing biomass harvested from each 21-day-old culture in an equal volume of hyamine hydroxide solution. Before solubilization, cells were washed three times with 50 ml of distilled water to remove adsorbed dyes. Ecolite 10 ml was added to the mixture, which was vortexed vigorously. To increase counting efficiency, the solution of biomass-hyamine-scintillation cocktail was further diluted 10 to 20 times with fresh Ecolite before counting.

P. chrysosporium = assay: as above; type: cell-based, Phanerochaete chrysosporium
Procedure: as §1
Either a charcoal-containing polyurethane sponge (Bio-Rad Laboratories, Richmond, Calif.) or 2-methoxyethanol was used to trap volatile organic compounds released during mineralization experiments. The sponge (1 cm^3) replaced the 1N NaOH solution in the small glass cap attached to the rubber stopper; other conditions were as before for the ^14 CO2 experiments. For scintillation counting, the charcoal sponges were dissolved in 1 ml of hyamine hydroxide contained in scintillation vials (1M solution in methanol; NEN Research Products, Boston, Mass.) held at 55° C. for 2 h. Ten ml of Ecolite scintillation cocktail were then added and the cpm was measured.
In the second procedure, cultures with CO2 traps were flushed with oxygen for 10 min, and the organic volatiles present were trapped in 10 ml of 2-methoxyethanol mixed with 10 ml Ecolite.
as §2

Mn(II)-peroxidase = assay: Oxidation of dyes by P. chrysosporium Mn(II)-peroxidase; type: biochemical, Phanerochaete chrysosporium; conditions: crude enzyme, conditions specific for Mn(II)-peroxidase
Procedure: (§3) The peroxidase assay was carried out using a composition having a final volume of 1.0 ml. The reaction mixture contained 250 μl of 100 mM HEPES buffer (pH 8), 500 μl of 10 mM 2,4-dichlorophenol, 100 μl of 1 mM aminoantipyrine, 50 μl enzyme preparation and 100 μl 50 mM H2 O2. The reaction was initiated by the addition of hydrogen peroxide at 37° C. One unit of peroxidase activity was expressed as the amount of enzyme required for an increase of one absorbance-unit-per-minute at 510 nm. Assays of manganese peroxidase and of ligninase from P. chrysosporium were carried out as previously described by Paszczynski et al in "Manganese peroxidase of Phanerochaete chrysosporium: Purification," Methods Enzymol. 161:264-270, incorporated herein by reference. […] Biophys., 1986, 44:750-765. Preparation and assay of ligninase and manganese peroxidase from these P. chrysosporium cultures were carried out as previously reported by Paszczynski, et al., Methods Enzymol., 1988, 161:264-270. […] Purification," Methods Enzymol. 161:264-270. […] Cycle time was 10 seconds, with the last measure after three minutes of incubation.

ligninase = assay: Oxidation of dyes by P. chrysosporium ligninase (crude preparation); type: biochemical, Phanerochaete chrysosporium; conditions: for Oxidation rate of azo dyes, P. chrysosporium Ligninase: crude enzyme, conditions specific for ligninase
Procedure: as §3, with “30 seconds” for “10 seconds,”, “15 minutes. […] The reaction conditions were the same as for acid yellow 9. No decolorization” for “three minutes”, “the synthesized dyes by ligninase was detected.” for “incubation.”

[2] = tested on: S. chromofuscus A11 extracellular peroxidase; assay: Oxidation of azo dyes by S. chromofuscus A11 crude enzyme preparation; type: biochemical, Streptomyces chromofuscus A11; conditions: pH 8, 37° C., H2O2
Procedure: Environ. Microbiol., 1988, 54:3057-3063. […] Microbiol. Biotechnol., 34:661-667. Incubation took place at 37° C. with shaking at 250 rpm. The culture supernatant was collected after 48 h incubation, and vacuum-filtered through Whatman no. 1 filter paper. The filtrate was concentrated approximately 40- to 50-fold by ultrafiltration through an Amicon ultrafiltration stirred cell (series no. 8000, Amicon Corp.) with a disc PM-10 filter (diameter, 76 mm). Protein in the concentrated filtrate was then precipitated from solution with 80% ammonium sulfate. The precipitate was collected by centrifugation (15 min, 10,000 rpm). The pellet was resuspended in 10 ml of 20 mM HEPES buffer (pH 8) and dialyzed overnight against the same buffer at 4° C. These preparations were then stored in 1-ml aliquots at -20° C. until used. Before using, the preparation was filtered through a NAP-25 Sephadex G-25 disposable column (Pharmacia) in order to separate a yellowish protein fraction from a pink low-molecular-weight fraction. The yellowish fraction was used as the source of enzyme. […] The reaction was started with the addition of 100 μl of 50 mM H2 O2 and was followed for 1 min at 37° C. Controls were run with no addition of H2 O2 or with the addition of the hemeperoxidase inhibitor KCN (final concentration 25 μM).

[3] = tested on: Phanerochaete chrysosporium; assay: Substrate removal / decolorization by P. chrysosporium culture; type: cell-based; conditions: for % Decolorization, P. chrysosporium: 14 days
Procedure: Environ. Microbiol., 1981, 42:290-296), with the addition of 75 mg adenine (6-aminopurine) and 27 mg L-phenylalanine-per-liter. This addition accelerated the growth of the fungus without inhibiting ligninase activity. […] […] Cultures were incubated at 37° C. for 7 to 15 days with shaking (250 rpm). Solid agar media were also employed.

S. chromofuscus A11 = conditions: for Degradation (%) after Streptomyces cultivation, strain A11: streptomyces chromofuscus a11 culture, 336 h
Procedure: (§4) Microbiol., 1984, 130:2905-2913.
(§5) Replicate sterile controls also were run in each experiment.
The Streptomyces were grown on the same media and under the same conditions as previously described. […] Thus, the spectrophotometric assays for substrates 1-12 were carried out at their specific isobastic points. Degradation was calculated as percent of substrates removed from culture broth, considering the evaporation factor (around 10%).

S. diastaticus A13 = type: cell-based; conditions: streptomyces diastaticus a13 culture, 336 h
Text: as §4, §5

S. diastaticus A12 = type: cell-based; conditions: streptomyces diastaticus a12 culture, 336 h
Text: as §4, §5

S. rochei A10 = type: cell-based; conditions: streptomyces rochei a10 culture, 336 h
Text: as §4, §5

[4] = molecular target: T1, horseradish peroxidase type II (Armoracia rusticana, UniProt P00433); assay: Oxidation of azo dyes by horseradish peroxidase preparation; type: biochemical; conditions: pH 8, 37° C., H2O2
T1 sequence (P00433 31-338): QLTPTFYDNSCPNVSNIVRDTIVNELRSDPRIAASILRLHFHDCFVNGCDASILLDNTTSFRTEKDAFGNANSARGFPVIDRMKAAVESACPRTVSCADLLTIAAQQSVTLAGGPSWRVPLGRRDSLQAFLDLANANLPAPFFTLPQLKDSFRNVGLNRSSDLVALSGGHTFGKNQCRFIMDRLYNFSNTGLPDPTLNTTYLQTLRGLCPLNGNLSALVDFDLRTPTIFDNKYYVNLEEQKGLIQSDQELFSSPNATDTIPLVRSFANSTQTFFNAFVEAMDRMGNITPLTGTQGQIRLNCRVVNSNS
Procedure: The reaction was started with the addition of 100 μl of 50 mM H2 O2 and was followed for 1 min at 37° C. Controls were run with no addition of H2 O2 or with the addition of the hemeperoxidase inhibitor KCN (final concentration 25 μM).

[5] = beginning concentration 100 ppm
[6] = beginning concentration 150 ppm
[7] = beginning concentration 200 ppm
[8] = beginning concentration 300 ppm

SMILES: O=S(=O)(O)c1ccc(N=Nc2ccc(O)c3ccccc23)cc1 [Azo dye 32, 4-(4-hydroxy-naphthylazo)-benzenesulfonic acid]
- Percentage of radioactivity recovered in CO2, Streptomyces chromofuscus ([1]; 21 days' growth, 50 mg/liter): 1.1%
- Percentage of radioactivity recovered in biomass (cells), Streptomyces chromofuscus ([1]; 21 days' growth, 50 mg/liter): 7.0%
- Percentage of radioactivity removed from the medium, Streptomyces chromofuscus ([1]; 21 days' growth, 50 mg/liter): 22.0%
- Percentage of radioactivity recovered in CO2, P. chrysosporium (P. chrysosporium; 21 days' growth, 200 mg/liter): 19.7%
- Percentage of radioactivity recovered in biomass (cells), P. chrysosporium (P. chrysosporium; 21 days' growth, 200 mg/liter): 4.0%
- Percentage of radioactivity removed from the medium, P. chrysosporium (P. chrysosporium; 21 days' growth, 200 mg/liter): 29.6%

SMILES: COc1cc(N=Nc2ccc(S(=O)(=O)O)cc2)ccc1O [compound 2]
- Oxidation rate of azo dyes, P. chrysosporium Mn-peroxidase (Mn(II)-peroxidase): 8.19 μmoles per minute per ml
- Oxidation rate of azo dyes, P. chrysosporium Ligninase (ligninase): 0.72 μmoles per minute per ml
- Oxidation / decolorization by ligninase (ligninase; pH3, 0.2 mM hydrogen peroxide, 15-minute incubation): not detected
- Oxidation rate of azo dyes, S. chromofuscus peroxidase [2]: 3.68 μmoles per minute per ml
- Concentration of substrate after ten days cultivation with P. chrysosporium [3, 5]: 2.493 ppm
- Concentration of substrate after ten days cultivation with P. chrysosporium [3, 6]: 6.350 ppm
- Concentration of substrate after ten days cultivation with P. chrysosporium [3, 7]: 10.068 ppm
- Concentration of substrate after ten days cultivation with P. chrysosporium [3, 8]: 7.318 ppm
- Degradation by Phanerochaete fungus ([3]; growth period of seven days, starting dye 150-200 ppm (FIG. 3), 10080 min): 90%
- % Decolorization, P. chrysosporium ([3]; initial concn 150 ppm): 97%
- % Decolorization, P. chrysosporium ([3]; initial concn 300 ppm): 94%
- Degradation (%) after Streptomyces cultivation, strain A11 (S. chromofuscus A11): 73%
- Degradation (%) after Streptomyces cultivation, strain A13 (S. diastaticus A13): 18%
- Degradation (%) after Streptomyces cultivation, strain A12 (S. diastaticus A12): 43%
- Degradation (%) after Streptomyces cultivation, strain A10 (S. rochei A10): 77%
- Oxidation rate of azo dyes, Horseradish peroxidase [4]: 18.19 μmoles per minute per ml

SMILES: COc1cc(C)cc(N=Nc2ccc(S(=O)(=O)O)cc2)c1O [compound 11]
- Oxidation rate of azo dyes, P. chrysosporium Mn-peroxidase (Mn(II)-peroxidase): 1.06 μmoles per minute per ml
- Oxidation rate of azo dyes, P. chrysosporium Ligninase (ligninase): 1.28 μmoles per minute per ml
- Oxidation rate of azo dyes, S. chromofuscus peroxidase [2]: 0.33 μmoles per minute per ml
- Concentration of substrate after ten days cultivation with P. chrysosporium [3, 5]: 6.795 ppm
- Concentration of substrate after ten days cultivation with P. chrysosporium [3, 6]: 14.416 ppm
- Concentration of substrate after ten days cultivation with P. chrysosporium [3, 7]: 30.075 ppm
- Concentration of substrate after ten days cultivation with P. chrysosporium [3, 8]: 21.765 ppm
- % Decolorization, P. chrysosporium ([3]; initial concn 150 ppm): 70%
- % Decolorization, P. chrysosporium ([3]; initial concn 300 ppm): 34%
- Degradation (%) after Streptomyces cultivation, strain A11 (S. chromofuscus A11): 9%
- Degradation (%) after Streptomyces cultivation, strain A10 (S. rochei A10): 4%
- Oxidation rate of azo dyes, Horseradish peroxidase [4]: 0.15 μmoles per minute per ml

SMILES: O=S(=O)(O)c1ccc(N=Nc2ccc(O)c3ccccc23)cc1 [compound 32]
- Oxidation rate of azo dyes, P. chrysosporium Mn-peroxidase (Mn(II)-peroxidase): 4.62 μmoles per minute per ml
- Oxidation rate of azo dyes, P. chrysosporium Ligninase (ligninase): 0.23 μmoles per minute per ml
- Oxidation rate of azo dyes, S. chromofuscus peroxidase [2]: 2.62 μmoles per minute per ml
- Decolorization of growth medium by S. chromofuscus A11 (S. chromofuscus A11; both 50 and 100 ppm): significantly decolorized
- Oxidation rate of azo dyes, Horseradish peroxidase [4]: 3.91 μmoles per minute per ml

SMILES: COc1cc(N=Nc2ccc(N=N[14c]3[14cH][14cH][14c](S(=O)(=O)O)[14cH][14cH]3)cc2S(=O)(=O)O)ccc1O [compound 35]
- Mineralization by the streptomycetes ([1]; 21-day incubation): mineralized

SMILES: O=S(=O)(O)[14c]1[14cH][14cH][14c](N=Nc2c(O)ccc3ccccc23)[14cH][14cH]1 [compound 36]
- Degradation began earlier than dye 37 (P. chrysosporium; P. chrysosporium): 2 days
- Degradation relative to dye 37 (P. chrysosporium; P. chrysosporium, 21-day incubation): 2.5 times
